Laboratory results taken from US20250281672A1, “IDENTIFICATION OF PRO- AND ANTI-INFLAMMATORY LIPIDS RELATING TO IMMUNE RESPONSE TO MEDICAL IMPLANTS” (William Marsh Rice University, priority 2021, published 2025).

Tests used:
brain of mice = assay: 2-week PDMS pillar implantation in mouse brain; histology and immunohistochemistry; assay type: in vivo; conditions: PDMS pillars, 2 weeks
Experimental: Mouse Brain Implantation. C57BL/6J mice were allowed to acclimate for greater than one week prior to surgical manipulation. After the acclimation period, 24 hours prior to surgery, the mice were premedicated with 5 mg/kg meloxicam SC for analgesia. 30 minutes prior to surgery, the mice were given 30 mg/kg trimethoprim-sulfamethoxazole PO for antimicrobial prophylaxis. The mice were then anesthetized with 3% isoflurane with 1 L/min O2 in an induction chamber and then transferred to a nose cone with 1-3% inhaled isoflurane with 0.5 L/min O2 for maintenance anesthesia. Depth of anesthesia was monitored testing for no response to toe pinch throughout surgery. Immediately following induction, the mouse was placed on a warming pad and maintained on the warming pad throughout surgery. The fur on the mouse head was trimmed with an electric razor and topical anesthetic with 2.5% lidocaine/prilocaine cream was applied for several minutes. The mice were then given 5 mg/kg meloxicam SC and 0.1 mg/kg buprenorphine SC for analgesia. The trimmed mouse scalp was then scrubbed with 7.5% povidone-iodine solution. Sterile neoprene surgical gloves (Medichoice) and sterile autoclaved instruments were used to maintain sterile technique throughout surgery. […]

[1] = system: gonadal fat pads of C57BL/6 adult male mice, a pro-fibrotic mouse model; assay: 28-day implantation of functionalized PDMS disks on gonadal fat pads (IP space); gross fibrosis and histology; assay type: in vivo; conditions: 28 days
Experimental: PDMS disk/pillar preparation & functionalization. PDMS implants were made with SYLGARD™ 184 silicone elastomer by mixing the base and curing agent in a ratio of 10:1 and letting sit 24 hours at room temperature in either sheets or pillar molds. The PDMS sheets were punched with 4 mm biopsy punches to make disks, or the pillar were removed from their molds, and plasma cleaned under general atmospheric air on each side for 1 minute at high Rf, 700-800 torr. Samples were then functionalized by one of two methods: Method 1) for the methacryloyl modified Z2-Y12 and Z2-Y12 Analog, the PDMS disks were incubating in a solution of DMSO:ACN (Sigma) (60:40) overnight under nitrogen gas flow. For the methacryloyl modified Z1-Y15 (0.2M), methacryloyl Z1-Y15 was added to DMSO (0.3 w/v %) and heated to 80° C. Separately Milli-Q H2O was heated to 80° C. and added to the reaction dropwise for a final mixture of 1:4 DMSO:Milli-Q H2O. The mixture was left stirring under reduced heat 40-50° C. under high stirring conditions ([…]). PDMS sheets were added to this mixture and allowed to stir overnight under Nitrogen gas. Disks were submerged in 1×PBS and left to soak for 10 minutes. Samples were then washed 3× with 1×PBS after overnight functionalization. […] Functionalized disks were maintained at −80° C. until they were ready for implantation. […]

NCCOCCOCCOCCn1cc(CN2CCS(=O)(=O)CC2)nn1 [Z1]
accumulation/migration of immune cells at the implant site (immunohistochemistry) (brain of mice): not observed
fibrotic strands of cells at the implant site (histology) (brain of mice): absent
adherent peripheral tissue on disks (FBR and fibrosis) ([1]; PDMS disks, gonadal fat pads): virtually no adherent peripheral tissue was found
interfacial fibrotic layer on the implant surface (histology) ([1]; tissue around PDMS implants): prevented the development of an interfacial fibrotic layer
